# Reference: US20230041563A1, “N-(1,3,4-OXADIAZOL-2-YL)ARYLCARBOXAMIDES OR SALTS THEREOF, PREPARATION METHODS, HERBICIDAL COMPOSITIONS AND USES THEREOF” (priority 2018, published 2023)
# How the values were obtained:
# Test in all cases: Weeding effect in post-emergence stage (greenhouse pot spray)
# Assay type in all cases: in vivo
# Echinochloa crusgalli = system: Echinochloa crusgalli
# Excerpt: (§1) The activity level criteria for plant damage (i.e., growth control rate) are as follows:
# (§2) The above growth control rates are fresh weight control rates.
# (§3) Experiment on weeding effect in post-emergence stage: monocotyledonous and dicotyledonous weed seeds (Descurainia sophia, Capsella bursa-pastoris, Abutilon theophrasti, Galium aparine, Stellaria media, Lithospermum arvense, rorippa indica, Alopecurus aequalis, Beckmannia syzigachne, Sclerochloa dura, Phleum paniculatum, Bromus japonicus, Aegilops tauschii, Phalaris arundinacea, Amaranthus retroflexus, Chenopodiaceae, Commelina communis, Sonchus arvensis, convolvulus arvensis, Cirsium setosum, Solanum nigrum, Acalypha australis, Digitaria sanguinalis, Echinochloa crusgalli, Setaria viridis, Setaria glauca, Leptochloa chinensis, Monochoria vaginalis, Sagittaria trifolia, Scirpus juncoides, Cyperus rotundus, Cyperus iria, Cyperus difformis, Fimbristylis, Portulaca oleracea, Xanthium sibiricum, Pharbitis nil) and major crop seeds (wheat, corn, rice, soybean, cotton, oilseed rape, millet, sorghum, potato, sesame, ricinus) were placed in plastic pots filled with soil, then covered with 0.5-2 cm of soil, allowed to grow in a good greenhouse environment. After 2 weeks of sowing, the test plants were treated in the 2 to 3 leaf stage. The tested compounds of the present invention were respectively dissolved in acetone, then added with Tween 80 and 1.5 liter/ha of emulsifiable concentrate of methyl oleate as synergist, diluted with a certain amount of water to obtain a solution with a certain concentration, and sprayed with a spray tower onto the plants. After the application, the plants were cultured for 3 weeks in the greenhouse, and then the experimental results of the weeding were counted. […]
# Setaria viridis = system: Setaria viridis
# Excerpt: as §1, §2, §3
# Digitaria sanguinalis = system: Digitaria sanguinalis
# Excerpt: as §1, §2, §3
smiles,measurement,setting,value
Cc1nnc(NC(=O)c2ccc(C(F)(F)F)c([S@+](C)[O-])c2F)o1 [1-2 (R-configuration)],Echinochloa crusgali (activity level),"Echinochloa crusgalli; Table 3, dose 7.5 g a.i./ha",0 (Level 0: growth control rate is less than 5%)
same,Echinochloa crusgali (activity level),"Echinochloa crusgalli; Table 3, dose 15 g a.i./ha",1 (Level 1: growth control rate is greater than or equal to 5% and less than 20%)
same,Echinochloa crusgali (activity level),"Echinochloa crusgalli; Table 3, dose 30 g a.i./ha",3 (Level 3: growth control rate is greater than or equal to 40% and less than 60%)
same,Echinochloa crusgali (activity level),"Echinochloa crusgalli; Table 3, dose 60 g a.i./ha",4 (Level 4: growth control rate is greater than or equal to 60% and less than 85%)
same,Setaria viridis (activity level),"Setaria viridis; Table 3, dose 7.5 g a.i./ha",0 (Level 0: growth control rate is less than 5%)
same,Setaria viridis (activity level),"Setaria viridis; Table 3, dose 15 g a.i./ha",2 (Level 2: growth control rate is greater than or equal to 20% and less than 40%)
same,Setaria viridis (activity level),"Setaria viridis; Table 3, dose 30 g a.i./ha",3 (Level 3: growth control rate is greater than or equal to 40% and less than 60%)
same,Setaria viridis (activity level),"Setaria viridis; Table 3, dose 60 g a.i./ha",3 (Level 3: growth control rate is greater than or equal to 40% and less than 60%)
same,Digitaria sanguinahs (activity level),"Digitaria sanguinalis; Table 3, dose 7.5 g a.i./ha",0 (Level 0: growth control rate is less than 5%)
same,Digitaria sanguinahs (activity level),"Digitaria sanguinalis; Table 3, dose 15 g a.i./ha",1 (Level 1: growth control rate is greater than or equal to 5% and less than 20%)
same,Digitaria sanguinahs (activity level),"Digitaria sanguinalis; Table 3, dose 30 g a.i./ha",3 (Level 3: growth control rate is greater than or equal to 40% and less than 60%)
same,Digitaria sanguinahs (activity level),"Digitaria sanguinalis; Table 3, dose 60 g a.i./ha",4 (Level 4: growth control rate is greater than or equal to 60% and less than 85%)
CC[S@+]([O-])c1c(C(F)(F)F)ccc(C(=O)Nc2nnc(C)o2)c1F [1-5 (R-configuration)],Echinochloa crusgali (activity level),"Echinochloa crusgalli; Table 3, dose 3.75 g a.i./ha",4 (Level 4: growth control rate is greater than or equal to 60% and less than 85%)
same,Echinochloa crusgali (activity level),"Echinochloa crusgalli; Table 3, dose 7.5 g a.i./ha",5 (Level 5: growth control rate is above 85%)
same,Echinochloa crusgali (activity level),"Echinochloa crusgalli; Table 3, dose 15 g a.i./ha",5 (Level 5: growth control rate is above 85%)
same,Echinochloa crusgali (activity level),"Echinochloa crusgalli; Table 3, dose 30 g a.i./ha",5 (Level 5: growth control rate is above 85%)
same,Echinochloa crusgali (activity level),"Echinochloa crusgalli; Table 3, dose 60 g a.i./ha",5 (Level 5: growth control rate is above 85%)
same,Setaria viridis (activity level),"Setaria viridis; Table 3, dose 3.75 g a.i./ha",3 (Level 3: growth control rate is greater than or equal to 40% and less than 60%)
same,Setaria viridis (activity level),"Setaria viridis; Table 3, dose 7.5 g a.i./ha",4 (Level 4: growth control rate is greater than or equal to 60% and less than 85%)
same,Setaria viridis (activity level),"Setaria viridis; Table 3, dose 15 g a.i./ha",5 (Level 5: growth control rate is above 85%)
same,Setaria viridis (activity level),"Setaria viridis; Table 3, dose 30 g a.i./ha",5 (Level 5: growth control rate is above 85%)
same,Setaria viridis (activity level),"Setaria viridis; Table 3, dose 60 g a.i./ha",5 (Level 5: growth control rate is above 85%)
same,Digitaria sanguinahs (activity level),"Digitaria sanguinalis; Table 3, dose 3.75 g a.i./ha",3 (Level 3: growth control rate is greater than or equal to 40% and less than 60%)
same,Digitaria sanguinahs (activity level),"Digitaria sanguinalis; Table 3, dose 7.5 g a.i./ha",4 (Level 4: growth control rate is greater than or equal to 60% and less than 85%)
same,Digitaria sanguinahs (activity level),"Digitaria sanguinalis; Table 3, dose 15 g a.i./ha",5 (Level 5: growth control rate is above 85%)
same,Digitaria sanguinahs (activity level),"Digitaria sanguinalis; Table 3, dose 30 g a.i./ha",5 (Level 5: growth control rate is above 85%)
same,Digitaria sanguinahs (activity level),"Digitaria sanguinalis; Table 3, dose 60 g a.i./ha",5 (Level 5: growth control rate is above 85%)
COCC[S@+]([O-])c1c(C(F)(F)F)ccc(C(=O)Nc2nnc(C)o2)c1F [1-57 (R-configuration)],Echinochloa crusgali (activity level),"Echinochloa crusgalli; Table 3, dose 125 g a.i./ha",5 (Level 5: growth control rate is above 85%)
same,Setaria viridis (activity level),"Setaria viridis; Table 3, dose 125 g a.i./ha",5 (Level 5: growth control rate is above 85%)
same,Digitaria sanguinahs (activity level),"Digitaria sanguinalis; Table 3, dose 125 g a.i./ha",5 (Level 5: growth control rate is above 85%)
Cc1nnc(NC(=O)c2ccc(C(F)(F)F)c([S@+]([O-])CC(C)(C)C)c2F)o1 [1-392 (R-configuration)],Echinochloa crusgali (activity level),"Echinochloa crusgalli; Table 3, dose 500 g a.i./ha",5 (Level 5: growth control rate is above 85%)
same,Setaria viridis (activity level),"Setaria viridis; Table 3, dose 500 g a.i./ha",5 (Level 5: growth control rate is above 85%)
same,Digitaria sanguinahs (activity level),"Digitaria sanguinalis; Table 3, dose 500 g a.i./ha",5 (Level 5: growth control rate is above 85%)
Cc1nnc(NC(=O)c2ccc(C(F)(F)F)c([S@@+]([O-])CCC3CC3)c2F)o1 [1-395 (R-configuration)],Echinochloa crusgali (activity level),"Echinochloa crusgalli; Table 3, dose 500 g a.i./ha",5 (Level 5: growth control rate is above 85%)
same,Setaria viridis (activity level),"Setaria viridis; Table 3, dose 500 g a.i./ha",5 (Level 5: growth control rate is above 85%)
same,Digitaria sanguinahs (activity level),"Digitaria sanguinalis; Table 3, dose 500 g a.i./ha",5 (Level 5: growth control rate is above 85%)
C=CCC[S@+]([O-])c1c(C(F)(F)F)ccc(C(=O)Nc2nnc(C)o2)c1F [1-397 (R-configuration)],Echinochloa crusgali (activity level),"Echinochloa crusgalli; Table 3, dose 125 g a.i./ha",5 (Level 5: growth control rate is above 85%)
same,Setaria viridis (activity level),"Setaria viridis; Table 3, dose 125 g a.i./ha",5 (Level 5: growth control rate is above 85%)
same,Digitaria sanguinahs (activity level),"Digitaria sanguinalis; Table 3, dose 125 g a.i./ha",5 (Level 5: growth control rate is above 85%)
C/C=C/C[S@@+]([O-])c1c(C(F)(F)F)ccc(C(=O)Nc2nnc(C)o2)c1F [1-398 (R-configuration)],Echinochloa crusgali (activity level),"Echinochloa crusgalli; Table 3, dose 250 g a.i./ha",5 (Level 5: growth control rate is above 85%)
same,Setaria viridis (activity level),"Setaria viridis; Table 3, dose 250 g a.i./ha",5 (Level 5: growth control rate is above 85%)
same,Digitaria sanguinahs (activity level),"Digitaria sanguinalis; Table 3, dose 250 g a.i./ha",5 (Level 5: growth control rate is above 85%)
C#CCC[S@@+]([O-])c1c(C(F)(F)F)ccc(C(=O)Nc2nnc(C)o2)c1F [1-401 (R-configuration)],Echinochloa crusgali (activity level),"Echinochloa crusgalli; Table 3, dose 500 g a.i./ha",5 (Level 5: growth control rate is above 85%)
same,Setaria viridis (activity level),"Setaria viridis; Table 3, dose 500 g a.i./ha",5 (Level 5: growth control rate is above 85%)
same,Digitaria sanguinahs (activity level),"Digitaria sanguinalis; Table 3, dose 500 g a.i./ha",5 (Level 5: growth control rate is above 85%)
CC#CC[S@+]([O-])c1c(C(F)(F)F)ccc(C(=O)Nc2nnc(C)o2)c1F [1-402 (R-configuration)],Echinochloa crusgali (activity level),"Echinochloa crusgalli; Table 3, dose 500 g a.i./ha",5 (Level 5: growth control rate is above 85%)
same,Setaria viridis (activity level),"Setaria viridis; Table 3, dose 500 g a.i./ha",5 (Level 5: growth control rate is above 85%)
same,Digitaria sanguinahs (activity level),"Digitaria sanguinalis; Table 3, dose 500 g a.i./ha",5 (Level 5: growth control rate is above 85%)
Cc1nnc(NC(=O)c2ccc(C(F)(F)F)c([S@@+]([O-])CC(C)F)c2F)o1 (stereo partly drawn) [1-404 (R-configuration)],Echinochloa crusgali (activity level),"Echinochloa crusgalli; Table 3, dose 60 g a.i./ha",5 (Level 5: growth control rate is above 85%)
same,Setaria viridis (activity level),"Setaria viridis; Table 3, dose 60 g a.i./ha",5 (Level 5: growth control rate is above 85%)
same,Digitaria sanguinahs (activity level),"Digitaria sanguinalis; Table 3, dose 60 g a.i./ha",5 (Level 5: growth control rate is above 85%)
